The numbers were not newly measured in patent publication US5567683A, “Substituted lactose and lactosamine derivatives as cell adhesion inhibitors” (Glycomed Incorporated, priority 1994, dated 1996), which cites them from elsewhere.

The test system of the data set is mammalian hepatocytes. Conditions: effect of valency and spacing of lactose moieties; read-out: IC50 for inhibition of labeled ASOR binding to mammalian hepatocytes.

As usually defined, the IC50 is the concentration needed to halve the response being measured. As for `OC[C@H]1O[C@@H](O[C@H]2[C@H](O)[C@@H](O)C(O)O[C@@H]2CO)[C@H](O)[C@@H](O)[C@H]1O` (stereo partly shown) [monovalent lactose, lactose], the IC50 was 500 µM.
